According to patent publication US9133212B1, “Inhibitors of hemeprotein-catalyzed lipid peroxidation” (Vanderbilt University, priority 2005, dated 2015):
Like-named read-outs stand apart in the source and are kept apart here.

What was measured:
HepG2 cells = test: Direct cellular toxicity (total cellular ATP levels); type: cell-based; conditions: Homo sapiens, concentration causing a 50% decrease in total cellular ATP levels, read-out: Cellular Toxicity (EC50, μM ± SD)
Source text: Microsomal stability is expressed as % of unmodified compound remaining after reaction. Cellular toxicity is expressed as the con-centration causing a 50% decrease in total cellular ATP levels. Values represent means±S.E.M.

myoglobin (Mb) = biological target: T1, myoglobin (Mb) (Homo sapiens, UniProt P02144); test: Inhibition of myoglobin-induced arachidonic acid oxidation; type: biochemical
T1 sequence (P02144 1-154): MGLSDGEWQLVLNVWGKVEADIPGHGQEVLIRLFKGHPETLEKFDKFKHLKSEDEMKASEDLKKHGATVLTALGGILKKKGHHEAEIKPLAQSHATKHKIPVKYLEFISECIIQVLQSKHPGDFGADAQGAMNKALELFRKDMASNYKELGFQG
Method: (§1) The inhibition of the lipid peroxidation produced by myoglobin (Mb) and COX-1 by the different analogs was tested. Values represent the IC50 for each hemeprotein and are expressed as means±S.E.M. a: value reported from (1.). b: value reported from (3).

COX-1 [1] = biological target: T2, COX-1 (Homo sapiens, UniProt P23219); test: Inhibition of COX-1 oxidation of arachidonic acid (Example 6); type: biochemical
T2 sequence (P23219 24-599, species assumed): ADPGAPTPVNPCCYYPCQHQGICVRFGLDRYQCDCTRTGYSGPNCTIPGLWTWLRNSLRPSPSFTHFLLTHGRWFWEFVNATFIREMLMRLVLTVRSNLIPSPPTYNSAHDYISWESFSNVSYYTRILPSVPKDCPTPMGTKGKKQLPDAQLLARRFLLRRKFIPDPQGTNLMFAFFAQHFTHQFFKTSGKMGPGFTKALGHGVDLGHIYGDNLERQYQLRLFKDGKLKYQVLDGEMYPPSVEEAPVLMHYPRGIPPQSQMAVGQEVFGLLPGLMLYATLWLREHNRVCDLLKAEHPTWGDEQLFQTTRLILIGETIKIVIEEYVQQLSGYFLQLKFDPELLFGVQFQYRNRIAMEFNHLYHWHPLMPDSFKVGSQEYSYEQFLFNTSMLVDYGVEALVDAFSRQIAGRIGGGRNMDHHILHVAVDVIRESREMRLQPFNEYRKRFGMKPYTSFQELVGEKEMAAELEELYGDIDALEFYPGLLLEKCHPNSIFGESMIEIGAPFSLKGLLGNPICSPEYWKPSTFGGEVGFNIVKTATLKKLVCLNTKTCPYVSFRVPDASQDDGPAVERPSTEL
Method: as §1

Microsomal stability = conditions: % of unmodified compound remaining after reaction
ferryl myoglobin = biological target: T3, ferryl myoglobin (Homo sapiens, UniProt P02144); test: Reduction of ferryl myoglobin to ferric myoglobin; type: biochemical
T3 sequence (P02144 1-154): T1 sequence (P02144 1-154)
Method: Ferryl myoglobin was generated by incubating ferric myoglobin 10 μM in PBS with 10 μM hydrogen peroxide until there was no more change in the peak at 421 nm. At this time, the analogs were added to the cuvette at the final concentrations indicated and spectra were recorded every 15 sec for 2 min. The initial rate of reduction was calculated as the variation of absorbance at 409 nm in the first two minutes after adding the analogs. In this period of time the rates of reduction were linear for each concentration of analog.

PGHS-1 (COX-1) = PGHS-1 (COX-1) (Homo sapiens, UniProt P23219); test: Inhibition of PGHS-1 (COX-1), [14C]arachidonic acid oxidation; type: biochemical; conditions: for IC50: in vitro system
Chain of PGHS-1 (COX-1) (P23219 24-599, species assumed): as above
Method: At this time the reaction was initiated by addition of 0.5 μM of [14C]arachidonic acid. After 8 seconds, the reaction was stopped by adding an ice cold mixture of diethyl ether/methanol/4.0 M citric acid. PGHS-1 activity was expressed as percent oxidation of arachidonic acid compared with control where no inhibitor was added. Each data point represents the mean±S.E.M of six values.
(§2) Hematin-reconstituted COX-1 (5.4 nM) or COX-2 (10.8 nM) in Tris HCl 100 mM, pH 8.0, 500 μM phenol, was pre-incubated with N-dimethyl pyrimidinol (DM, plain line) or N-dimethyl pyridinol (DR, dashed line) at varying concentrations at 37° C. for 20 minutes. At this time the reaction was initiated by addition of 0.5 μM of [14C] arachidonic acid. After 8 seconds, the reaction was stopped by adding an ice cold mixture of diethyl ether/methanol/4.0 M citric acid. PGHS-1 activity was expressed as percent oxidation of arachidonic acid compared with control where no inhibitor was added. Each data point represents the mean±S.E.M of six values.

PGHS-2 (COX-2) = biological target: T4, PGHS-2 (COX-2) (Homo sapiens, UniProt P35354); test: Inhibition of PGHS-2 (COX-2), [14C]arachidonic acid oxidation; type: biochemical; conditions: for inhibition of PGHS-2 (COX-2), in words: compared with its PGHS-1 inhibition
T4 sequence (P35354 18-604): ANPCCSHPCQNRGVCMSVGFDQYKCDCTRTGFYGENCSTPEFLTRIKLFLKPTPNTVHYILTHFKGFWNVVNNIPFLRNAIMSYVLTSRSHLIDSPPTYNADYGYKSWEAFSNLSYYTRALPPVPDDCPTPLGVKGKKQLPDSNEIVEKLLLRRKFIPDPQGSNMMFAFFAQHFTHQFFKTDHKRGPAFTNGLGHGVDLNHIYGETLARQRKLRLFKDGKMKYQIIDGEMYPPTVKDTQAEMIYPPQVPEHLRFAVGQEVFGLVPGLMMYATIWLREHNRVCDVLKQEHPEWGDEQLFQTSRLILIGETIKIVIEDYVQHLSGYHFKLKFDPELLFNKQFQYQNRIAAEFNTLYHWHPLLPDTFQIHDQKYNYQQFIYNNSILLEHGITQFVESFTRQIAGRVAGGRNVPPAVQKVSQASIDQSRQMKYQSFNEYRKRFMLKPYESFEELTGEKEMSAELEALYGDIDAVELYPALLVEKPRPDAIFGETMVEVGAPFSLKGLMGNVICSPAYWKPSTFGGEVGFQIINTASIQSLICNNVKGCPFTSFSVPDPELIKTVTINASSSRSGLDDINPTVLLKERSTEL
Method: as §2

HepG2 liver cell line = test system: HepG2 liver cell line
Method: HepG2 were plated in multiple 96-well plates at 2×10^4 cells per well and pretreated with ethanol 100 μM for 2 hours. […] Cell viability after 24 h was determined by measuring ATP levels by luminescence assay.

hemoglobin = hemoglobin (Homo sapiens, UniProt P68871+P69905); test: Inhibition of hemoglobin-catalyzed lipid peroxidation; type: biochemical; conditions: read-out: IC50 for hemoglobin (hemoprotein-catalyzed lipid peroxidation)
Chain of hemoglobin (P69905 2-142 limits assumed): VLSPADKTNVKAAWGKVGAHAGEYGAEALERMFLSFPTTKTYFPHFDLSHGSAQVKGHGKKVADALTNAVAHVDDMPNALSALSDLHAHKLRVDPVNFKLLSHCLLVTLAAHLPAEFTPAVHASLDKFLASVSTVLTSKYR
Chain of hemoglobin (P68871 2-147 limits assumed): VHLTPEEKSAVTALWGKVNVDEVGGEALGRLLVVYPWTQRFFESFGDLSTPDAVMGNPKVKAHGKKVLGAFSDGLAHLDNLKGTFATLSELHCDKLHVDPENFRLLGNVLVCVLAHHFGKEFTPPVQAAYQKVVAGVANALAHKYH

[2] = test system: rat model of rhabdomyolysis; test: Rat model of rhabdomyolysis (renal failure from myoglobin-catalyzed lipid peroxidation); type: in vivo; conditions: dose that produced plasma levels in the therapeutic range for humans
COX-1 [3] = biological target: T2, COX-1; conditions: oxidation of arachidonic acid, Table 2, footnote b; read-out: COX-1 IC50 (μM ± SEM), value reported from (3); cited from earlier work
[4] = bicyclic compounds, structure table, read-out: Oxidation of AA by Mb IC50
[5] = oxidation of arachidonic acid, Table 2, read-out: Mb IC50 (μM ± SEM)
[6] = bicyclic compounds, structure table, read-out: Oxidation of AA by COX-1 IC50
[7] = oxidation of arachidonic acid, Table 2, read-out: COX-1 IC50 (μM ± SEM)

Row | Molecule | EC50 (HepG2 cells) [µM] | IC50 (myoglobin (Mb); [4]) [µM] | IC50 (myoglobin (Mb); [5]) [µM] | IC50 (COX-1 [1]; [6]) [µM] | IC50 (COX-1 [1]; [7]) [µM] | Microsomal stability % left (Microsomal stability) [%] | also measured
1 | Cc1nc2c(c(C)c1O)CNC(=O)N2 [Analog 13] | 2960 ± 284 | 2.29 ± 0.6 | 2.3 ± 0.4 | > 1000 | > 1000 | 87 ± 7 | inhibition of COX-1, in words (COX-1 [1]; at concentrations up to 1 mM): not able to significantly inhibit
2 | Cc1nc2c(c(C)c1O)COC(=O)N2 [Analog 14] | > 5000 | 5.34 ± 0.1 | 5.3 ± 0.1 | 198 ± 50.1 | 198 ± 25 | 97 ± 3 | –
3 | CN(C)c1ncc(O)cn1 [DM-Pym, 2-(dimethylamino)pyrimidin-5-ol] | – | – | – | – | – | – | potency in reducing ferryl myoglobin, in words (ferryl myoglobin; compared with acetaminophen): remarkably more potent than acetaminophen; IC50 (PGHS-1 (COX-1)): 21 µM; inhibition of PGHS-2 (COX-2), in words (PGHS-2 (COX-2)): equally effective; cytotoxicity in HepG2 cell line stimulated with ethanol (HepG2 liver cell line): does not cause cytotoxicity
4 | CN(C)c1ccc(O)cn1 [DM-Pyr, 6-(dimethylamino)pyridin-3-ol] | – | – | – | – | – | – | inhibition of PGHS-2 (COX-2), in words (PGHS-2 (COX-2)): only a weak inhibitor
5 | O=C1NCc2cc(O)cnc2N1 [Analog 12] | 4760 ± 36 | 1.15 ± 0.3 | 1.2 ± 0.1 | 451 | 451 ± 35 | 158 ± 33 | –
6 | 2-(dimethylamino)pyrimidin-5-ol [DM-Pym] | – | – | – | – | – | – | times more potent in reducing ferryl myoglobin than acetaminophen (ferryl myoglobin; relative to acetaminophen): 14 times; times more potent as an inhibitor of PGHS-1 than acetaminophen (PGHS-1 (COX-1); relative to acetaminophen): 10 times; times more potent as an inhibitor of PGHS-2 than acetaminophen (PGHS-2 (COX-2); relative to acetaminophen): 10 times; cytotoxicity in HepG2 cell line stimulated with ethanol (HepG2 liver cell line): not cytotoxic
7 | CC(=O)Nc1ccc(O)cc1 [ApAP, acetaminophen] | 594 ± 147 | – | – | – | – | – | IC50 (hemoglobin): 15 µM; lipid peroxidation in rhabdomyolysis model ([2]; listed as Acetaminophen): blocked; renal failure in rhabdomyolysis model ([2]; listed as Acetaminophen): prevented; lipid peroxidation in rhabdomyolysis model ([2]; listed as acetaminophen): blocks; renal failure in rhabdomyolysis model ([2]; listed as acetaminophen): blocks; IC50 (PGHS-1 (COX-1)): 250 µM; IC50 (COX-1 [3]): 372 µM
